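Five concentrations, 48 hours, 96-well plates. Here, GI50 denotes the concentration required for 50% inhibition of growth. TGI marks complete inhibition of growth.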
Legend:
Test in all cases: NCI-60 cell line screen, 48 h
[1] = tested on: 786-0 renal
[2] = tested on: A498 renal
[3] = tested on: A549 NSCLC
[4] = tested on: ACHN renal
[5] = tested on: BT-549 breast
[6] = tested on: CAKI-1 renal
[7] = tested on: CCRF-CEM leukemia
[8] = tested on: COLO 205 colon
[9] = tested on: DU-145 prostate
[10] = tested on: EKVX NSCLC
[11] = tested on: HCC-2998 colon
[12] = tested on: HCT-116 colon
[13] = tested on: HCT-15 colon
[14] = tested on: HL-60(TB) leukemia
[15] = tested on: HOP-62 NSCLC
[16] = tested on: HOP-92 NSCLC
[17] = tested on: HS 578T breast
[18] = tested on: HT29 colon
[19] = tested on: IGROV1 ovarian
[20] = tested on: K-562 leukemia
[21] = tested on: KM12 colon
[22] = tested on: LOX IMVI melanoma
[23] = tested on: M14 melanoma
[24] = tested on: MALME-3M melanoma
[25] = tested on: MCF7 breast
[26] = tested on: MDA-MB-231 breast
[27] = tested on: MDA-MB-435
[28] = tested on: MOLT-4 leukemia
[29] = tested on: NCI-H226 lung
[30] = tested on: NCI-H23 lung
[31] = tested on: NCI-H460 lung
[32] = tested on: NCI-H522 lung
[33] = tested on: NCI/ADR-RES ovarian
[34] = tested on: OVCAR-3 ovarian
[35] = tested on: OVCAR-4 ovarian
[36] = tested on: OVCAR-5 ovarian
[37] = tested on: OVCAR-8 ovarian
[38] = tested on: PC-3 prostate
[39] = tested on: RPMI-8226 leukemia
[40] = tested on: RXF 393 renal
[41] = tested on: SF-268 CNS
[42] = tested on: SF-295 CNS
[43] = tested on: SF-539 CNS
[44] = tested on: SK-MEL-2 melanoma
[45] = tested on: SK-MEL-28 melanoma
[46] = tested on: SK-MEL-5 melanoma
[47] = tested on: SK-OV-3 ovarian
[48] = tested on: SN12C renal
[49] = tested on: SNB-19 CNS
[50] = tested on: SNB-75 CNS
[51] = tested on: SR leukemia
[52] = tested on: SW-620 colon
[53] = tested on: T-47D breast
[54] = tested on: TK-10 renal
[55] = tested on: U251 CNS
[56] = tested on: UACC-257 melanoma
[57] = tested on: UACC-62 melanoma
[58] = tested on: UO-31 renal

Compound `O=C1Nc2ccccc2C1(c1ccc(O)cc1)c1ccc(O)cc1` has a GI50 [1] of 26.7 µM, a TGI [1] of 75.9 µM and a GI50 [2] of 17.8 µM. For the same compound, the TGI [2] was 47.1 µM, the GI50 [3] was 27.9 µM and the TGI [3] was greater than 96.7 µM. The GI50 [4] was 17.9 µM, the TGI [4] was greater than 100 µM and the GI50 [5] was 0.0625 µM. For the same compound, the TGI [5] was 0.541 µM, the GI50 [6] was 22.7 µM and the TGI [6] was 81.3 µM. For the same compound, the GI50 [7] was 32.7 µM, the TGI [7] was 99.8 µM and the GI50 [8] was 0.125 µM. For the same compound, the TGI [8] was 4.38 µM, the GI50 [9] was 21 µM and the TGI [9] was 54.3 µM. It also gave a GI50 [10] of 14.5 µM, a TGI [10] of 90 µM and a GI50 [11] of 1.99 µM. It also gave a TGI [11] of 27 µM, a GI50 [12] of 14.5 µM and a TGI [12] of 31.6 µM. The GI50 [13] was 19.2 µM, the TGI [13] was greater than 100 µM and the GI50 [14] was 22.9 µM. The TGI [14] was 63 µM, the GI50 [15] was 20.5 µM and the TGI [15] was 53.1 µM. The GI50 [16] was 2.42 µM, the TGI [16] was 21.2 µM and the GI50 [17] was 0.0932 µM. The TGI [17] was 0.298 µM, the GI50 [18] was 29.3 µM and the TGI [18] was greater than 90 µM. The GI50 [19] was 10.2 µM, the TGI [19] was 39.3 µM and the GI50 [20] was 29.2 µM. The TGI [20] was greater than 100 µM, the GI50 [21] was 12.1 µM and the TGI [21] was 28.4 µM. For the same compound, the GI50 [22] was 5.97 µM, the TGI [22] was 35.9 µM and the GI50 [23] was 20.1 µM. It also gave a TGI [23] of 49.3 µM, a GI50 [24] of 28.5 µM and a TGI [24] of 92 µM. It also gave a GI50 [25] of 0.378 µM, a TGI [25] of 27.8 µM and a GI50 [26] of 20.3 µM. For the same compound, the TGI [26] was 48.7 µM, the GI50 [27] was 23 µM and the TGI [27] was 71.3 µM. For the same compound, the GI50 [28] was 26.6 µM, the TGI [28] was 98.1 µM and the GI50 [29] was 12.8 µM. For the same compound, the TGI [29] was 59.7 µM, the GI50 [30] was 1.23 µM and the TGI [30] was 37.8 µM. For the same compound, the GI50 [31] was 18.5 µM, the TGI [31] was 37.9 µM and the GI50 [32] was 17.2 µM. It also gave a TGI [32] of 43.4 µM, a GI50 [33] of 0.982 µM and a TGI [33] greater than 100 µM. It also gave a GI50 [34] of 0.11 µM, a TGI [34] of 0.899 µM and a GI50 [35] of 0.103 µM. The TGI [35] was 0.961 µM, the GI50 [36] was 25.6 µM and the TGI [36] was 81.5 µM. It also gave a GI50 [37] of 0.273 µM, a TGI [37] of 77.5 µM and a GI50 [38] of 2.71 µM. The TGI [38] was 75 µM, the GI50 [39] was 25.8 µM and the TGI [39] was 70.9 µM. The GI50 [40] was 0.445 µM, the TGI [40] was 13.4 µM and the GI50 [41] was 24.4 µM. The TGI [41] was 77.9 µM, the GI50 [42] was 16.2 µM and the TGI [42] was 49.4 µM. The GI50 [43] was 18.5 µM, the TGI [43] was 40.2 µM and the GI50 [44] was 22.9 µM. It also gave a TGI [44] of 50.6 µM, a GI50 [45] of 26.9 µM and a TGI [45] of 65.7 µM. It also gave a GI50 [46] of 14.7 µM, a TGI [46] of 29.3 µM and a GI50 [47] of 22.8 µM. The TGI [47] was 54.2 µM, the GI50 [48] was 0.312 µM and the TGI [48] was 50.6 µM. It also gave a GI50 [49] of 34.3 µM, a TGI [49] greater than 97 µM and a GI50 [50] of 12.7 µM. The TGI [50] was 38 µM, the GI50 [51] was 32.9 µM and the TGI [51] was greater than 96.3 µM. For the same compound, the GI50 [52] was 26.2 µM, the TGI [52] was 83 µM and the GI50 [53] was 0.0474 µM. For the same compound, the TGI [53] was 0.245 µM, the GI50 [54] was 0.536 µM and the TGI [54] was 39.6 µM. The GI50 [55] was 24.2 µM, the TGI [55] was 63.5 µM and the GI50 [56] was 25.3 µM. For the same compound, the TGI [56] was 62 µM, the GI50 [57] was 19.2 µM and the TGI [57] was 43.8 µM. The GI50 [58] was 23.7 µM and the TGI [58] was greater than 89.1 µM.

For `CC/C=C\C[C@@H](O)C/C=C1/C(=O)C=C[C@H]1C/C=C\CCCC(=O)OC`, the GI50 [1] was 3.29 µM, the TGI [1] was 11.5 µM and the GI50 [2] was 14.6 µM. For the same compound, the TGI [2] was 28.1 µM, the GI50 [3] was 3.75 µM and the TGI [3] was 10.7 µM. The GI50 [4] was 1.97 µM, the TGI [4] was 4.02 µM and the GI50 [5] was 2.94 µM. The TGI [5] was 8.81 µM, the GI50 [6] was 3.57 µM and the TGI [6] was 13.5 µM. The GI50 [7] was 0.461 µM, the TGI [7] was 4.36 µM and the GI50 [8] was 1.8 µM. It also gave a TGI [8] of 4.66 µM, a GI50 [9] of 3.33 µM and a TGI [9] of 12.3 µM. The GI50 [10] was 9.14 µM, the TGI [10] was 21.1 µM and the GI50 [11] was 2.1 µM. It also gave a TGI [11] of 3.61 µM, a GI50 [12] of 0.498 µM and a TGI [12] of 2.53 µM. The GI50 [13] was 2.49 µM, the TGI [13] was 7.47 µM and the GI50 [14] was 1.96 µM. The TGI [14] was 5.48 µM, the GI50 [15] was 3.31 µM and the TGI [15] was 9.8 µM. The GI50 [16] was 4.54 µM, the TGI [16] was 15.2 µM and the GI50 [17] was 4.06 µM. For the same compound, the TGI [17] was 26.2 µM, the GI50 [18] was 2.36 µM and the TGI [18] was 5.74 µM. The GI50 [19] was 3.31 µM, the TGI [19] was 12.6 µM and the GI50 [20] was 0.987 µM. The TGI [20] was 10.1 µM, the GI50 [21] was 1.65 µM and the TGI [21] was 3.84 µM. For the same compound, the GI50 [22] was 0.329 µM, the TGI [22] was 1.51 µM and the GI50 [23] was 2.39 µM. The TGI [23] was 8.38 µM, the GI50 [24] was 2.87 µM and the TGI [24] was 9.3 µM. The GI50 [25] was 2.23 µM, the TGI [25] was 13.1 µM and the GI50 [26] was 6.06 µM. For the same compound, the TGI [26] was 20.5 µM, the GI50 [27] was 1.93 µM and the TGI [27] was 5.86 µM. For the same compound, the GI50 [28] was 2.06 µM, the TGI [28] was 5.83 µM and the GI50 [29] was 2.14 µM. For the same compound, the TGI [29] was 5.04 µM, the GI50 [30] was 2.4 µM and the TGI [30] was 6.63 µM. It also gave a GI50 [31] of 3.45 µM, a TGI [31] of 11.8 µM and a GI50 [32] of 1.65 µM. For the same compound, the TGI [32] was 3.97 µM, the GI50 [33] was 3.38 µM and the TGI [33] was 19.7 µM. It also gave a GI50 [34] of 3.1 µM, a TGI [34] of 10.3 µM and a GI50 [35] of 4.21 µM. For the same compound, the TGI [35] was 16.9 µM, the GI50 [36] was 3.35 µM and the TGI [36] was 12.1 µM. For the same compound, the GI50 [37] was 3.26 µM, the TGI [37] was 10.4 µM and the GI50 [38] was 3.2 µM. For the same compound, the TGI [38] was 10.8 µM, the GI50 [39] was 1.83 µM and the TGI [39] was 7.4 µM. For the same compound, the GI50 [40] was 1.85 µM, the TGI [40] was 3.55 µM and the GI50 [41] was 3.92 µM. For the same compound, the TGI [41] was 15.3 µM, the GI50 [42] was 2.97 µM and the TGI [42] was 9.27 µM. For the same compound, the GI50 [43] was 3.22 µM, the TGI [43] was 11.9 µM and the GI50 [44] was 6.99 µM. The TGI [44] was 21.6 µM, the GI50 [45] was 2.1 µM and the TGI [45] was 5.34 µM. It also gave a GI50 [46] of 1.77 µM, a TGI [46] of 3.25 µM and a GI50 [47] of 6.49 µM. For the same compound, the TGI [47] was 19 µM, the GI50 [48] was 4.64 µM and the TGI [48] was 19.3 µM. The GI50 [49] was 4.62 µM, the TGI [49] was 19.4 µM and the GI50 [50] was 6.17 µM. The TGI [50] was 19.6 µM, the GI50 [51] was 0.686 µM and the TGI [51] was 4 µM. The GI50 [52] was 2.84 µM, the TGI [52] was 8.6 µM and the GI50 [53] was 4.05 µM. The TGI [53] was 19 µM, the GI50 [54] was 11.6 µM and the TGI [54] was 24 µM. For the same compound, the GI50 [55] was 3.18 µM, the TGI [55] was 10.5 µM and the GI50 [56] was 3.38 µM. It also gave a TGI [56] of 8.36 µM, a GI50 [57] of 2.8 µM and a TGI [57] of 8.6 µM. For the same compound, the GI50 [58] was 1.73 µM and the TGI [58] was 3.34 µM.

Source: PubChem BioAssay (NCI)
